{"source": "patent US8461348B2", "about": "“Heterocyclic derivative and use thereof” (Takeda Pharmaceutical Company Limited, priority 2008, dated 2013)", "key": {"Purified sGC": {"target": "T1, Purified sGC (Homo sapiens, UniProt Q02153)", "T1 sequence (Q02153 1-619)": "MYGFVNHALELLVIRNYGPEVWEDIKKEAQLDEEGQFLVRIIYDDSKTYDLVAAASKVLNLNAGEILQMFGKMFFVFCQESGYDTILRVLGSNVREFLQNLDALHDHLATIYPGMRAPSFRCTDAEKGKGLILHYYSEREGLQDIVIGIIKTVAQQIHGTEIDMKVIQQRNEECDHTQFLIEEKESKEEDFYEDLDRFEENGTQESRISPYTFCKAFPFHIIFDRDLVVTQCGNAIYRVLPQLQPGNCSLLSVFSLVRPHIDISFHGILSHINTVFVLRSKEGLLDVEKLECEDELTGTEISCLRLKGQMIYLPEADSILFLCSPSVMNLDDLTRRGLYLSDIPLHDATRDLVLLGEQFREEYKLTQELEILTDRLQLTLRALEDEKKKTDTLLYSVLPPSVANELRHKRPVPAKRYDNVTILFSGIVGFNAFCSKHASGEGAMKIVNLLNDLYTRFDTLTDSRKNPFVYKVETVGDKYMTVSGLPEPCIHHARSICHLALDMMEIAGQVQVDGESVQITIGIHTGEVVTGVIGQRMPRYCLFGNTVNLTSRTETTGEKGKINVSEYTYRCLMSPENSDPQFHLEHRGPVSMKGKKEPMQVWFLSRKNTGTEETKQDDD", "T1 sequence (Q02108 1-690 partner)": "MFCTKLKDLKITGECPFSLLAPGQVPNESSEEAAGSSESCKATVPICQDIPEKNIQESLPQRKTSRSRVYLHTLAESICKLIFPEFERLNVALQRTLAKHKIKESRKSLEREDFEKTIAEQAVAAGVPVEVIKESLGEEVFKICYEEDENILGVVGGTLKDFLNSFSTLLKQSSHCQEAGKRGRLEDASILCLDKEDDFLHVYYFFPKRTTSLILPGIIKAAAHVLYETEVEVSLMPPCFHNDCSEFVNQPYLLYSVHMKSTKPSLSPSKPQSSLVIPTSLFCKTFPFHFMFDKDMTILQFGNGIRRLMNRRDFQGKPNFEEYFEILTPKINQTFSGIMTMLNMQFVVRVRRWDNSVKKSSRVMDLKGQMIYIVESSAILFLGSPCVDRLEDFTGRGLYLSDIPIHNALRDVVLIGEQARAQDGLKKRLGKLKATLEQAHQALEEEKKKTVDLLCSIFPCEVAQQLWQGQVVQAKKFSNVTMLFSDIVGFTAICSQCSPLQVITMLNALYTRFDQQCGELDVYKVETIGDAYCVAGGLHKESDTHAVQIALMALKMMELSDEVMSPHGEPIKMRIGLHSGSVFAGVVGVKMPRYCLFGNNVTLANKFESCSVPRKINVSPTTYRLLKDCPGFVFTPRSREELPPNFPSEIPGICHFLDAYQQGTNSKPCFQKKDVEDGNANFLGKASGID", "experiment": "Measurement of sGC activation in vitro (cGMP production by purified sGC)", "assay_type": "biochemical", "conditions": "20 min; test compound diluted to 30 μM, 10 μL/well plus equal volumes of sGC and GTP; 20 min at room temperature; cGMP without compound (1% DMSO) = 100%; read-out: cGMP amount (%) in experiment system", "protocol": "To evaluate sGC activation of each compound, the following in vitro tests were performed.\nA test compound was diluted with a reaction buffer (50 mM HEPES, 5 mM MgCl2, 2 mM DTT, 0.5 mM IBMX (isobutylmethylxanthine), 0.01% BSA) to 30 μM (3% DMSO), and dispensed to a 384 well plate (manufactured by REMP) at 10 μL/well. Purified sGC was diluted with the reaction buffer to 240 ng/mL and added to the plate at 10 μL/well. Then, 120 μM GTP prepared with the reaction buffer was added to the reaction plate at 10 μL/well to initiate an enzyme reaction. After stirring at room temperature for 20 min to allow reaction, 125 mM Na2CO3 was added at 15 μL/well to quench the reaction. Thereafter, 125 mM Zn Acetate (zinc acetate) was added at 15 μL/well to allow precipitation of unreacted GTP. Then, the amount of the resulting cGMP contained in the supernatant was quantified using a CatchPoint cGMP assay kit (molecular devices). The method followed the protocol attached to the assay kit. For detection, Super Signal ELISA Femto (Thermo) was used, and the amount of luminescence was measured with ARVO (Perkinelmer). The sGC activity with addition of the compound was calculated using the amount of cGMP produced without addition of the compound (in the presence of 1% DMSO) as 100%."}, "male SHR": {"test_system": "male SHR", "experiment": "Measurement of hypotensive action in vivo in SHR", "design": "species or system rat", "conditions": "single oral administration, 30 mg/kg, 5 hr after administration", "protocol": "Animal used was male SHR (32- to 40-week-old, SHR/Izm, Japan SLC, Inc.). Two days before drug administration, a cannula (SP10+SP45, Natsume Seisakusho Co., Ltd.) filled with heparin physiological saline (200 U/mL, Ajinomoto Pharma Co., Ltd.) was inserted from the femoral artery under anesthesia with pentobarbital Na (50 mg/kg, i.p., Kyoritsu Seiyaku Corporation) and dwelled. The other end of the cannula was subcutaneously passed and exposed on the back of the neck where it was fixed. After a recovery period, the artery dwelling cannula was connected to a pressure transducer (DTX Plus DT-XXAD, Japan Becton Dickinson) and output on a pen recorder (linear recorder WR3320-4µL, Graphtec Corporation) via a polygraph (AP-641G, Nihon Kohden Co.), and the blood pressure waveform was recorded. The heart rate was calculated from the blood pressure waveform. After stable blood pressure was obtained, a solvent or a drug was orally administered once, and average blood pressure and average heart rate were measured over time. The blood pressure was measured under fasting, and the rats were reared under free ingestion of feed and water except the blood pressure measurement day. The drug was suspended in 0.5% methylcellulose aqueous solution. The administration dose was 2 mL/kg."}}}
{"smiles": "O=C(O)c1ccc(Cc2nc(-c3cccc(C(F)(F)F)c3)cs2)cc1", "note": "[Example 178, 4-({4-[3-(trifluoromethyl)phenyl]-1,3-thiazol-2-yl}methyl)benzoic acid]", "values": [{"measurement": "activity at 10 µM", "setting": "Purified sGC", "value": "> 1000", "unit": "%"}, {"measurement": "hypotension after 5 hr from the administration", "setting": "male SHR", "value": 15.8, "unit": "mmHg"}]}
